Results taken from patent EP1222242B1, “CLEANING AGENTS WHICH CONTAIN SURFACTANTS AND ENZYME INHIBITORS” (Henkel Kommanditgesellschaft auf Aktien, priority 1999, dated 2001).
“Also recorded” adds a separate entry of the source.

Assays:
Chymotrypsin = target: T1, Chymotrypsin (Bos taurus, UniProt P00766); test: Chymotrypsin enzyme activity test (BTEE substrate, absorbance at 256 nm); format: biochemical, Rind; conditions: for Hemmwirkung (Minderung der Chymotrypsin-Aktivität): 25 °C; for Hemmung von Chymotrypsin: result in words over the tested concentration range
T1 construct: Chymotrypsin entsteht im Pankreas aus inaktiven Vorstufen, sogenannten Zymogenen, durch Einwirkung von Trypsin; purchased Sigma; host or cells: bovine pancreas (Rinderpankreas)
Description: (§1) Da die hauteigenen, am Desmosomenabbau beteiligten Proteasen nicht in ausreichender Menge zur Verfügung standen, dienten die Serin-Proteasen Trypsin und Chymotrypsin (Sigma) aus Rinderpankreas als Modellenzym, um die Hemmwirkung des erfindungsgemäß verwendeten Inhibitors N-CBZ-Gly-Pro-Phe-Pro-Leu, zu testen. Als Vergleich wurde auch das als t-PA-Inhibitor (tissue-type plasminogen activator) bekannte t-AMCHA [trans-4(Aminomethyl)-cyclohexancarbonsäure] getestet.
Der Nachweis der Chymotrypsin-Enzymaktivität erfolgt mit einer Modifikation analog zu den Angaben im Sigma Quality Control Test Procedure-Datenblatt für Chymotrypsin. Bei Ansätzen ohne Inhibitor wurden 1,42 mL Reagens A (80 mM Tris/HCl-Puffer, pH = 7,8; 25°C) zum Testansatz zugegeben. Bei Ansätzen mit Inhibitor wurden 1,32 mL Reagens A zum Testansatz zugegeben sowie 0,1 mL einer Lösung des entsprechenden Inhibitors in Reagens A (Konzentrationsreihe). Die Enzymaktivität wurde durch Umsetzung des Substrates N-Benzoyl-L-Tyrosinethylester (BTEE) zu N-Benzoyl-L-Tyrosin und Ethanol spektrophotometrisch bestimmt. Die Absorption des proteolytisch abgespaltenen N-Benzoyl-L-Tyrosins wird bei 256 nm gemessen.
(§2) Die Reaktionskinetiken wurden je 5 Minuten bei 25 °C detektiert, wobei der lineare Anstieg der Absorption (A) pro Zeiteinheit (t) ein Maß für die Aktivität des Enzyms (ΔA/Δt) ist. Die Aktivität des Enzyms in Abwesenheit eines Proteinase-Inhibitors, (ΔA1/Δt1 ), wurde auf 100% gesetzt. Unter analogen Bedingungen wurden die Aktivitäten in Gegenwart eines Inhibitors (ΔA2/Δt2) bestimmt. Die Hemmwirkung oder Minderung der Enzymaktivität entspricht dann: 100% - (ΔA2/Δt2 )/( ΔA1/Δt1)%.

[1] = system: Desquamation des Stratum corneum; test: Desquamation test on human skin biopsies (detergent-induced corneocyte shedding, corneocyte count); format: cell-based; conditions: for activity at 0.5 %: inhibitor 0,5 % (w/v); for Desquamation der Humanhaut (Korneozyten-Abschuppung): result in words over the tested concentration range
Description: Aus frischen Humanhautexplantaten (aus Mammareduktion) wurden 8mm^2-große Hautstücke ausgestanzt und mit einer Mischung aus Detergentien (Na-Dodecylsulfat, N,N-Dimethyldodecylaminoxid) in Abwesenheit und in Gegenwart der Inhibitoren behandelt. Unter dem Einfluß der Detergentien wird eine verstärkte Abschuppung (Desquamation) der Homschicht (Stratum corneum) künstlich induziert, also die Ausbildung trockener Haut im Versuch nachgeahmt. Die Anzahl abgeschuppter Hornzellen (Korneozyten) wurde unter dem Mikroskop in einer Schilling-Zählkammer bestimmt. Eine Verringerung der Korneozytenzahl weist auf eine hemmende Wirkung der getesteten potentiellen Inhibitoren hin.
Die Inhibitoren wurden in den entsprechenden Konzentrationen (vgl. Tabellen der Beispiele 7-12) im Inkubationspuffer angesetzt. Dieser bestand aus 0,1 M TRIS-HCl-Puffer (pH 8) mit 0,1 Gew.% Na-Azid und den Detergenzien Na-Dodecylsulfat (0,2 mM) und N,N-Dimethyldodecylaminoxid (8 mM) sowie EDTA (5 mM). Diese Inkubationspufferlösungen mit variierender Konzentration des Inhibitors werden nachfolgend als Testlösungen bezeichnet.
Es wurden zwei Arten von Blindkontrollen durchgeführt, eine Positiv- und eine Negativkontrolle. Für die sogenannte Positivkontrolle wurde nur der Inkubationspuffer verwendet, d. h. ohne Zusatz der Inhibitoren. Für die sogenannte Negativkontrolle wurde eine 5 mM Lösung von EDTA in TRIS-HCl-Puffer eingesetzt, d. h. ohne Zusatz der Detergentien.
Pro Reaktionsansatz wurden 0,5 mL der jeweiligen Testlösung oder des für die Blindkontrollen verwendeten Puffergemisches in verschließbaren Reaktionsgefäßen vorgelegt. Alle Ansätze wurden in vierfacher Ausfertigung durchgeführt, um die Reproduzierbarkeit der Ergebnisse zu gewährleisten.
Die Humanhaut wurde nach der Explantation in einer trockenen, sterilen Petrischale auf Kühlakkus transportiert. Nach Entfernung des Unterhautfett- und des Bindegewebes wurden mit Hilfe von sterilen Stanzen 8 mm^2-große Hautstücke präpariert. Diese wurden 15-20 min in steriler, physiologischer NaCl (0,9 %) gewaschen, zu den Reaktionsansätzen gegeben (1 Hautstück/Reaktionsansatz) und 44 Stunden bei 37° C inkubiert.
Nach Beendigung der Inkubationsphase wurden die Reaktionsgefäße 30 Sekunden auf einem Vortex-Mixer geschüttelt, um noch lose anhaftende Komeozyten von den Hautstücken abzulösen. Die Hautstücke wurden entnommen und die verbleibende Dispersion wurde 8 Minuten bei 11.000U/min zentrifugiert, um die Korneozyten zu isolieren. Der detergenshaltige Überstand (0,4 mL) wurde verworfen und der Rückstand mit 0,4 ml Aqua dest. gewaschen. Nach nochmaligem Zentrifugieren wurde der Überstand (0.4 mL) wiederum verworfen, das verbleibende Zellpellet in 0,4 mL Aqua dest. aufgenommen und die abgelösten Korneozyten in einer Schillingzählkammer unter einem Lichtmikroskop ausgezählt.
Nachfolgende Tabellen geben eine Zusammenstellung über die Anzahl abgelöster Korneozyten: • nach Behandlung der Haut-Biopsien mit einem Detergentiengemisch in Abwesenheit der Inhibitoren (Positivkontrolle) • nach Behandlung der Haut-Biopsien mit einer Pufferlösung in Abwesenheit der Detergentien und Inhibitoren (Negativkontrolle) • nach Behandlung der Haut-Biopsien mit einem Detergentiengemisch, welches die Inhibitoren in variierender Konzentration enthält.

Trypsin = target: T2, Trypsin (Bos taurus, UniProt P00760); test: Trypsin enzyme activity test (BAPNA substrate, absorbance at 405 nm); format: biochemical, Rind; conditions: for Hemmwirkung (Minderung der Trypsin-Aktivität): inhibitor concentration 0,01 % (w/v); for Hemmung von Trypsin: result in words over the tested concentration range
T2 construct: aus der vom Pankreas gebildeten Vorstufe Trypsinogen durch Abspaltung eines Hexapeptids entsteht; purchased Sigma; host or cells: bovine pancreas (Rinderpankreas)
T2 sequence (P00760 24-246): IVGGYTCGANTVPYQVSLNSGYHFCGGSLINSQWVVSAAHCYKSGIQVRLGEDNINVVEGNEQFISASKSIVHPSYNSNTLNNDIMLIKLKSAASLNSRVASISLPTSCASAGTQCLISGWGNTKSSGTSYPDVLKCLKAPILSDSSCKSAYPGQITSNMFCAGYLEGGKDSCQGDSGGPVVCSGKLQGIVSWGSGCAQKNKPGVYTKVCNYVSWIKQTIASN
Description: as §1
Auch der Nachweis der Trypsin-Enzymaktivität erfolgt mit einer Modifikation analog zu den Angaben im Sigma Quality Control Test Procedure-Datenblatt für Trypsin. Anstelle von Aprotinin (Reagens F) wurden hier die erfindungsgemäßen Inhibitoren eingesetzt. Hierfür wurde eine Konzentrationsreihe der Inhibitoren in Reagens E angesetzt. Die Enzymaktivität wurde durch Umsetzung des Substrates Nα-Benzoyl-DL-Arginin-p-Nitroanilin (BAPNA) zu Nα-Benzoyl-DL-Arginin und p-Nitroanilin spektrophotometrisch bestimmt. Die Absorption des proteolytisch abgespaltenen p-Nitroanilins wird bei 405 nm gemessen.
as §2

[2] = Homo sapiens, pH 8, corneocyte count, positive control = 100 %, 44 h, 37° C, read-out: Desquamation an Humanhaut ex vivo
[3] = Homo sapiens, pH 8, inhibitor 1,0 % (w/v), corneocyte count, positive control = 100 %, 44 h, 37° C, read-out: Desquamation an Humanhaut ex vivo

SMILES: NC[C@H]1CC[C@H](C(=O)O)CC1 [t-AMCHA, trans-4(Aminomethyl)-cyclohexancarbonsäure]
- Hemmwirkung (Minderung der Chymotrypsin-Aktivität) (Chymotrypsin; inhibitor concentration 0,01 % (w/v)): keine Hemmwirkung messbar
- Hemmwirkung (Minderung der Chymotrypsin-Aktivität) (Chymotrypsin; inhibitor concentration 0,1 % (w/v)): - " -
- Hemmwirkung (Minderung der Chymotrypsin-Aktivität) (Chymotrypsin; inhibitor concentration 0,05 % (w/v)): - " -
- Hemmwirkung (Minderung der Chymotrypsin-Aktivität) (Chymotrypsin; inhibitor concentration 0,5 % (w/v)): - " -
- Hemmwirkung (Minderung der Chymotrypsin-Aktivität) (Chymotrypsin; inhibitor concentration 1,0 % (w/v)): - " -
- Hemmung von Chymotrypsin (Chymotrypsin): nicht beeinträchtigt
- activity at 0.5 % [1, 2]: 51.3%
- activity at 1 % [1, 3]: 44%
- activity at 2.5 % ([1]; Homo sapiens, pH 8, inhibitor 2,5 % (w/v), corneocyte count, positive control = 100 %, 44 h, 37° C, read-out: Desquamation an Humanhaut ex vivo): 37.1%
- Desquamation der Humanhaut (Korneozyten-Abschuppung) [1]: Desquamationsinhibitor mit konzentrationsabhängigem Profil; also recorded: signifikant reduziert
- inhibition at 0.1 % (Trypsin; 5 min, inhibitor concentration 0,1 % (w/v), 25 °C, read-out: Hemmwirkung (Minderung der Trypsin-Aktivität)): 51%
- inhibition at 0.05 % (Trypsin; 5 min, inhibitor concentration 0,05 % (w/v), 25 °C, read-out: Hemmwirkung (Minderung der Trypsin-Aktivität)): 36%
- inhibition at 0.5 % (Trypsin; 5 min, inhibitor concentration 0,5 % (w/v), 25 °C, read-out: Hemmwirkung (Minderung der Trypsin-Aktivität)): 85%
- inhibition at 1 % (Trypsin; 5 min, inhibitor concentration 1,0 % (w/v), 25 °C, read-out: Hemmwirkung (Minderung der Trypsin-Aktivität)): 93%
- Hemmwirkung (Minderung der Trypsin-Aktivität) (Trypsin; 25 °C): 9%
- Hemmung von Trypsin (Trypsin): in Abhängigkeit von der Inhibitor-Konzentration beeinträchtigt

SMILES: O=C(/C=C/c1ccc(O)c(O)c1)O[C@H](Cc1ccc(O)c(O)c1)C(=O)O [Rosmarinsäure]
- Hemmwirkung (Minderung der Chymotrypsin-Aktivität) (Chymotrypsin; inhibitor concentration 0,001 % (w/v)): keine Hemmwirkung messbar
- Hemmwirkung (Minderung der Chymotrypsin-Aktivität) (Chymotrypsin; inhibitor concentration 0,005 % (w/v)): 2%
- Hemmwirkung (Minderung der Chymotrypsin-Aktivität) (Chymotrypsin; inhibitor concentration 0,0075 % (w/v)): 7%
- Hemmung von Chymotrypsin (Chymotrypsin): gering
- activity at 0.1 % ([1]; Homo sapiens, pH 8, inhibitor 0,1 % (w/v), corneocyte count, positive control = 100 %, 44 h, 37° C, read-out: Desquamation an Humanhaut ex vivo): 82.5%
- activity at 0.5 % [1, 2]: 60%
- activity at 1 % [1, 3]: 33.8%
- Desquamation an Humanhaut ex vivo ([1]; inhibitor 1,0 % (w/v), corneocyte count, positive control = 100 %, 44 h, 37° C): 33,8%
- Desquamation der Humanhaut (Korneozyten-Abschuppung) [1]: konzentrationsabhängige Reduktion; also recorded: signifikant reduziert
- Hemmwirkung (Minderung der Trypsin-Aktivität) (Trypsin; 25 °C): 61%
- Hemmung von Trypsin (Trypsin): starke, konzentrationsabhängige Hemmung
